Broadly, the IC50 is the midpoint of a concentration-inhibition curve.

The structures appear in SMILES notation.

The test has as its target T1, recombinant human Estrogen Receptor alpha ligand binding domain, residues 307-554 (ER alpha-LBD (GST)) (Homo sapiens, UniProt P03372).
T1 construct: made in house
T1 sequence (P03372 307-554): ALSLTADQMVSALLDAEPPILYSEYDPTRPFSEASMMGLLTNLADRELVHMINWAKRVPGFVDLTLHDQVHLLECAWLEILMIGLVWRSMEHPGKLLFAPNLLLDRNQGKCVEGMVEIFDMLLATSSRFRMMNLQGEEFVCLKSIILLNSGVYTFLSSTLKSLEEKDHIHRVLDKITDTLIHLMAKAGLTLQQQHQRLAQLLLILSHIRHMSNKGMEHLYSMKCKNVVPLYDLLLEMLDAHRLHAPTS
The test is described as follows: ERα binding assay (LanthaScreen TR-FRET competition). The conditions noted are these: TR-FRET competition with Fluormone ES2 tracer, 4 hours at room temperature; single experiment or average of two or more. In general terms: TR-FRET usually uses a lanthanide donor and a delayed reading to cut background.
Regarding `Cc1ncsc1-c1ccc(CNC(=O)[C@@H]2C[C@@H](O)CN2C(=O)[C@@H](NC(=O)CCCCCCCCCOc2cc(F)c([C@@H]3c4[nH]c5ccccc5c4C[C@@H](C)N3CC(C)(C)F)c(F)c2)C(C)(C)C)cc1` [Example 11, (2S,4R)-1-((S)-2-(10-(3,5-Difluoro-4-((1R,3R)-2-(2-fluoro-2-methylpropyl)-3-methyl-2,3,4,9-tetrahydro-1H-pyrido[3,4-b]indol-1-yl)phenoxy)decanamido)-3,3-dimethylbutanoyl)-4-hydroxy-N-(4-(4-methylthiazol-5-yl)benzyl)pyrrolidine-2-carboxamide], the IC50 stood at 1.5 nM.
Under `Cc1ncsc1-c1ccc([C@H](C)NC(=O)[C@@H]2C[C@@H](O)CN2C(=O)[C@@H](NC(=O)COCCc2ccc(COc3cc(F)c([C@@H]4c5[nH]c6ccccc6c5C[C@@H](C)N4CC(C)(C)F)c(F)c3)nc2)C(C)(C)C)cc1` [Example 159, (2S,4R)-1-((S)-2-(2-(2-(6-((3,5-Difluoro-4-((1R,3R)-2-(2-fluoro-2-methylpropyl)-3-methyl-2,3,4,9-tetrahydro-1H-pyrido[3,4-b]indol-1-yl)phenoxy)methyl)pyridin-3-yl)ethoxy)acetamido)-3,3-dimethylbutanoyl)-4-hydroxy-N—((S)-1-(4-(4-methylthiazol-5-yl)phenyl)ethyl)pyrrolidine-2-carboxamide] stands 0.7 nM.
Under `Cc1ncsc1-c1ccc(CNC(=O)[C@@H]2C[C@@H](O)CN2C(=O)[C@@H](NC(=O)C(F)(F)OCCOCCCCOc2cc(F)c([C@@H]3c4[nH]c5ccccc5c4C[C@@H](C)N3CC(C)(C)F)c(F)c2)C(C)(C)C)cc1` [Example 121, (2S,4R)-1-((S)-2-(2-(2-(4-(3,5-Difluoro-4-((1R,3R)-2-(2-fluoro-2-methylpropyl)-3-methyl-2,3,4,9-tetrahydro-1H-pyrido[3,4-b]indol-1-yl)phenoxy)butoxy)ethoxy)-2,2-difluoroacetamido)-3,3-dimethylbutanoyl)-4-hydroxy-N-(4-(4-methylthiazol-5-yl)benzyl)pyrrolidine-2-carboxamide] stands 0.7 nM.
Under `Cc1ncsc1-c1ccc(CNC(=O)[C@@H]2C[C@@H](O)CN2C(=O)[C@@H](NC(=O)CCOCCCCCCCOc2cc(F)c([C@@H]3c4[nH]c5ccccc5c4C[C@@H](C)N3CC(C)(C)F)c(F)c2)C(C)(C)C)cc1` [Example 115, (2S,4R)-1-((S)-2-(3-((7-(3,5-difluoro-4-((1R,3R)-2-(2-fluoro-2-methylpropyl)-3-methyl-2,3,4,9-tetrahydro-1H-pyrido[3,4-b]indol-1-yl)phenoxy)heptyl)oxy)propanamido)-3,3-dimethylbutanoyl)-4-hydroxy-N-(4-(4-methylthiazol-5-yl)benzyl)pyrrolidine-2-carboxamide] stands 0.7 nM.
As for `Cc1ncsc1-c1ccc(CNC(=O)[C@@H]2C[C@@H](O)CN2C(=O)[C@@H](NC(=O)COCCOCCCCCOc2cnc([C@@H]3c4[nH]c5ccccc5c4C[C@@H](C)N3CC(C)(F)F)c(F)c2)C(C)(C)C)cc1` [Example 164, (2S,4R)-1-((S)-2-(2-(2-((5-((6-((1S,3R)-2-(2,2-Difluoropropyl)-3-methyl-2,3,4,9-tetrahydro-1H-pyrido[3,4-b]indol-1-yl)-5-fluoropyridin-3-yl)oxy)pentyl)oxy)ethoxy)acetamido)-3,3-dimethylbutanoyl)-4-hydroxy-N-(4-(4-methylthiazol-5-yl)benzyl)pyrrolidine-2-carboxamide], the 50% inhibitory concentration (IC50) worked out at 6.6 nM.
Under `Cc1ncsc1-c1ccc(CNC(=O)[C@@H]2C[C@@H](O)CN2C(=O)[C@@H](NC(=O)COCCc2ccc(COc3cc(F)c([C@@H]4c5[nH]c6ccccc6c5C[C@@H](C)N4CC(C)(C)F)c(F)c3)cc2)C(C)(C)C)cc1` [Example 53, (2S,4R)-1-((S)-2-(2-(4-((3,5-difluoro-4-((1R,3R)-2-(2-fluoro-2-methylpropyl)-3-methyl-2,3,4,9-tetrahydro-1H-pyrido[3,4-b]indol-1-yl)phenoxy)methyl)phenethoxy)acetamido)-3,3-dimethylbutanoyl)-4-hydroxy-N-(4-(4-methylthiazol-5-yl)benzyl)pyrrolidine-2-carboxamide] stands 1 nM; under `Cc1ncsc1-c1ccc([C@H](C)NC(=O)[C@@H]2C[C@@H](O)CN2C(=O)[C@@H](NC(=O)COCCOCCCCCOc2cc(F)c([C@@H]3c4[nH]c5ccccc5c4C[C@@H](C)N3CC(C)(C)F)c(F)c2)C(C)(C)C)cc1` [Example 156, (2S,4R)-1-((S)-2-(2-(2-((5-(3,5-Difluoro-4-((1R,3R)-2-(2-fluoro-2-methylpropyl)-3-methyl-2,3,4,9-tetrahydro-1H-pyrido[3,4-b]indol-1-yl)phenoxy)pentyl)oxy)ethoxy)acetamido)-3,3-dimethylbutanoyl)-4-hydroxy-N—((S)-1-(4-(4-methylthiazol-5-yl)phenyl)ethyl)pyrrolidine-2-carboxamide], 0.6 nM.
To `Cc1ncsc1-c1ccc(CNC(=O)[C@@H]2C[C@@H](O)CN2C(=O)[C@@H](NC(=O)COCCOCCOCCOc2cc(F)c([C@@H]3c4[nH]c5ccccc5c4C[C@@H](C)N3C[C@H](C)CO)c(F)c2)C(C)(C)C)cc1` [Example 101, (2S,4R)-1-((S)-2-(tert-butyl)-14-(3,5-difluoro-4-((1R,3R)-2-((S)-3-hydroxy-2-methylpropyl)-3-methyl-2,3,4,9-tetrahydro-1H-pyrido[3,4-b]indol-1-yl)phenoxy)-4-oxo-6,9,12-trioxa-3-azatetradecanoyl)-4-hydroxy-N-(4-(4-methylthiazol-5-yl)benzyl)pyrrolidine-2-carboxamide] belongs 3.3 nM; to `Cc1ncsc1-c1ccc(CNC(=O)[C@@H]2C[C@@H](O)CN2C(=O)[C@@H](NC(=O)COCCCCCOCCCOc2cc(F)c([C@@H]3c4[nH]c5ccccc5c4C[C@@H](C)N3CC(C)(C)F)c(F)c2)C(C)(C)C)cc1` [Example 136, (2S,4R)-1-((S)-2-(2-((5-(3-(3,5-Difluoro-4-((1R,3R)-2-(2-fluoro-2-methylpropyl)-3-methyl-2,3,4,9-tetrahydro-1H-pyrido[3,4-b]indol-1-yl)phenoxy)propoxy)pentyl)oxy)acetamido)-3,3-dimethylbutanoyl)-4-hydroxy-N-(4-(4-methylthiazol-5-yl)benzyl)pyrrolidine-2-carboxamide], 1.2 nM; to `Cc1ncsc1-c1ccc(CNC(=O)[C@@H]2C[C@@H](O)CN2C(=O)[C@@H](NC(=O)COCCC(C)(C)CCOc2cc(F)c([C@@H]3c4[nH]c5ccccc5c4C[C@@H](C)N3CC(C)(C)F)c(F)c2)C(C)(C)C)cc1` [Example 23, (2S,4R)-1-((S)-2-(2-((5-(3,5-Difluoro-4-((1R,3R)-2-(2-fluoro-2-methylpropyl)-3-methyl-2,3,4,9-tetrahydro-1H-pyrido[3,4-b]indol-1-yl)phenoxy)-3,3-dimethylpentyl)oxy)acetamido)-3,3-dimethylbutanoyl)-4-hydroxy-N-(4-(4-methylthiazol-5-yl)benzyl)pyrrolidine-2-carboxamide], 1.1 nM.

(Values after patent publication US10519152B2, “Compounds and their use in treating cancer” (AstraZeneca AB, priority 2017, dated 2019).)
